According to US10294202B2, “Pyrrolidinones as herbicides” (FMC Corporation, priority 2013, dated 2019):

Experiments:
rice = assay: Test B flooded paddy test; format: in vivo, Oryza sativa; settings: Flood, scale of 0 to 100 where 0 is no effect and 100 is complete control
Summary of the method: (§1)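 Plants grown to 2-leaf stage; pots flooded 3 cm above soil and compound applied directly into paddy water, depth held throughout. Visual rating against untreated controls after 13 to 15 days in greenhouse, 0 (no effect) to 100 (complete control).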

barnyardgrass [1] = assay: Test B flooded paddy test; format: in vivo, Echinochloa crus-galli; settings: Flood, scale of 0 to 100 where 0 is no effect and 100 is complete control
Summary of the method: as §1

galium = assay: Test A postemergence herbicide test; format: in vivo, Galium aparine
Summary of the method: (§2)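 Blackgrass and galium grown in pots of loam soil–sand blend, treated postemergence at 2–10 cm height, one- to two-leaf stage. Plants kept in greenhouse ~10 days, then visually rated for injury against untreated controls on a 0–100 scale (0 no effect, 100 complete control).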

pigweed = assay: Test A pre-/postemergence herbicide test; format: in vivo, Amaranthus retroflexus
Summary of the method: (§3)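 Scoring was visual, relative to untreated controls, on a 0–100 scale after about 10 greenhouse days. Preemergence treatment used a directed soil spray over seeded loam/sand; postemergence treatment targeted one- to two-leaf plants of 2–10 cm.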

blackgrass = assay: Test A postemergence herbicide test; format: in vivo, Alopecurus myosuroides
Summary of the method: as §2

ragweed = assay: Test A pre-/postemergence herbicide test; format: in vivo, Ambrosia elatior
Summary of the method: as §3

ducksalad = assay: Test B flooded paddy test; format: in vivo, Heteranthera limosa; settings: Flood, scale of 0 to 100 where 0 is no effect and 100 is complete control
Summary of the method: as §1

kochia = assay: Test A pre-/postemergence herbicide test; format: in vivo, Kochia scoparia
Summary of the method: as §3

corn = assay: Test A pre-/postemergence herbicide test; format: in vivo, Zea mays; settings: Postemergence
Summary of the method: as §3

sedge, umbrella = assay: Test B flooded paddy test; format: in vivo, Cyperus difformis; settings: Flood, scale of 0 to 100 where 0 is no effect and 100 is complete control
Summary of the method: as §1

giant foxtail = assay: Test A pre-/postemergence herbicide test; format: in vivo, Setaria faberii
Summary of the method: as §3

barnyardgrass [2] = assay: Test A pre-/postemergence herbicide test; format: in vivo, Echinochloa crus-galli
Summary of the method: as §3

wheat = assay: Test A pre-/postemergence herbicide test; format: in vivo, Triticum aestivum; settings: Postemergence
Summary of the method: as §3

ryegrass, Italian = assay: Test A pre-/postemergence herbicide test; format: in vivo, Lolium multiflorum
Summary of the method: as §3

[3] = 125 g ai/ha, 0 to 100 scale, 0 is no effect, 100 is complete control
[4] = 500 g ai/ha, 0 to 100 scale (0 no effect, 100 complete control)
[5] = 125 g ai/ha, visual rating, 0 to 100 scale, 0 no effect, 100 complete control, approximately 10 days, preemergence
[6] = Postemergence, 125 g ai/ha, 0 to 100 scale, 0 is no effect, 100 is complete control
[7] = Postemergence, 500 g ai/ha, 0 to 100 scale (0 no effect, 100 complete control)
[8] = preemergence, 500 g ai/ha, 0 to 100 scale, 0 is no effect and 100 is complete control
[9] = Postemergence, 125 g ai/ha, visual rating on 0 to 100 scale (0 no effect, 100 complete control), approx. 10 days
[10] = Preemergence, 125 g ai/ha, 0 to 100 scale where 0 is no effect and 100 is complete control

Q: How did the “Plant response rating, Rice” value (rice; 1000 g ai/ha) turn out when `COc1ccc(C2CNC(=O)C2C(=O)Nc2ccccc2C(F)(F)F)cc1C(F)(F)F` (stereo not drawn) [Compound 240] was run?
A: Its value is 0.

Q: What about the “Plant response rating, Barnyardgrass” value (barnyardgrass [1]; 1000 g ai/ha) of the same compound?
A: Its value is 70.

Q: And the “Plant response rating, Galium” value (galium; [3])?
A: Its value is 0.

Q: What about the “Plant response rating, Galium” value (galium; [4]) of the same compound?
A: The value was 0.

Q: What about the “Plant response rating, Pigweed” value (pigweed; [5]) of the same compound?
A: Its value is 0.

Q: And the “Plant response rating, Pigweed” value (pigweed; [6])?
A: Its value is 0.

Q: What about the “Plant response rating, Pigweed” value (pigweed; [7]) of the same compound?
A: Its value is 0.

Q: And the “Plant response rating, Pigweed” value (pigweed; [8])?
A: The value was 0.

Q: What about the “Plant response rating, Blackgrass” value (blackgrass; [3]) of the same compound?
A: The value was 0.

Q: What about the “Plant response rating, Blackgrass” value (blackgrass; [4]) of the same compound?
A: Its value is 0.

Q: What about the “Plant response rating, Ragweed” value (ragweed; [5]) of the same compound?
A: Its value is 0.

Q: What about the “Plant response rating, Ragweed” value (ragweed; [6]) of the same compound?
A: Its value is 0.

Q: What about the “Plant response rating, Ragweed” value (ragweed; [7]) of the same compound?
A: Its value is 0.

Q: And the “Plant response rating, Ragweed” value (ragweed; [8])?
A: The value was 0.

Q: And the “Plant response rating, Ducksalad” value (ducksalad; 1000 g ai/ha)?
A: The value was 85.

Q: And the “Plant response rating, Kochia” value (kochia; [5])?
A: The value was 0.

Q: And the “Plant response rating, Kochia” value (kochia; [6])?
A: Its value is 0.

Q: And the “Plant response rating, Kochia” value (kochia; [7])?
A: Its value is 0.

Q: What about the “Plant response rating, Kochia” value (kochia; [8]) of the same compound?
A: The value was 0.

Q: And the “Plant response rating, Corn” value (corn; [3])?
A: Its value is 0.

Q: And the “Plant response rating, Corn” value (corn; [4])?
A: The value was 20.

Q: And the “Plant response rating, Sedge, Umbrella” value (sedge, umbrella; 1000 g ai/ha)?
A: Its value is 0.

Q: And the “Plant response rating, Foxtail, Giant” value (giant foxtail; [5])?
A: Its value is 70.

Q: And the “Plant response rating, Foxtail, Giant” value (giant foxtail; [6])?
A: The value was 40.

Q: What about the “Plant response rating, Foxtail, Giant” value (giant foxtail; [7]) of the same compound?
A: The value was 80.

Q: And the “Plant response rating, Foxtail, Giant” value (giant foxtail; [8])?
A: The value was 90.

Q: And the “Plant response rating, Barnyardgrass” value (barnyardgrass [2]; [5])?
A: Its value is 20.

Q: And the “Plant response rating, Barnyardgrass” value (barnyardgrass [2]; [6])?
A: The value was 30.

Q: And the “Plant response rating, Barnyardgrass” value (barnyardgrass [2]; [7])?
A: Its value is 90.

Q: And the “Plant response rating, Barnyardgrass” value (barnyardgrass [2]; [8])?
A: The value was 50.

Q: What about the “Plant response rating, Wheat” value (wheat; [3]) of the same compound?
A: Its value is 0.

Q: And the “Plant response rating, Wheat” value (wheat; [4])?
A: The value was 20.

Q: And the “Plant response rating, Ryegrass, Italian” value (ryegrass, Italian; [5])?
A: Its value is 0.

Q: And the “Plant response rating, Ryegrass, Italian” value (ryegrass, Italian; [6])?
A: Its value is 0.

Q: And the “Plant response rating, Ryegrass, Italian” value (ryegrass, Italian; [7])?
A: Its value is 0.

Q: And the “Plant response rating, Ryegrass, Italian” value (ryegrass, Italian; [8])?
A: Its value is 0.

Q: `O=C1NCC(c2cc3ccccc3o2)C1C(=O)Nc1cccc(F)c1F` (stereo not drawn) [Compound 282] was tested. Which “Plant response rating, Rice” value (rice; 500 g ai/ha) did it give?
A: The value was 0.

Q: And the “Plant response rating, Barnyardgrass” value (barnyardgrass [1]; 500 g ai/ha)?
A: Its value is 30.

Q: What about the “Plant response rating, Galium” value (galium; [3]) of the same compound?
A: Its value is 0.

Q: What about the “Plant response rating, Galium” value (galium; [4]) of the same compound?
A: The value was 40.

Q: And the “Plant response rating, Pigweed” value (pigweed; [9])?
A: Its value is 0.

Q: What about the “Plant response rating, Pigweed” value (pigweed; [7]) of the same compound?
A: The value was 0.

Q: And the “Plant response rating, Pigweed” value (pigweed; [10])?
A: Its value is 0.

Q: What about the “Plant response rating, Pigweed” value (pigweed; [8]) of the same compound?
A: Its value is 0.

Q: What about the “Plant response rating, Blackgrass” value (blackgrass; [3]) of the same compound?
A: The value was 0.

Q: What about the “Plant response rating, Blackgrass” value (blackgrass; [4]) of the same compound?
A: Its value is 20.

Q: And the “Plant response rating, Ragweed” value (ragweed; [9])?
A: Its value is 0.

Q: What about the “Plant response rating, Ragweed” value (ragweed; [7]) of the same compound?
A: Its value is 0.

Q: What about the “Plant response rating, Ragweed” value (ragweed; [10]) of the same compound?
A: Its value is 0.

Q: What about the “Plant response rating, Ragweed” value (ragweed; [8]) of the same compound?
A: Its value is 0.

Q: And the “Plant response rating, Ducksalad” value (ducksalad; 500 g ai/ha)?
A: Its value is 95.

Q: What about the “Plant response rating, Kochia” value (kochia; [6]) of the same compound?
A: The value was 0.

Q: What about the “Plant response rating, Kochia” value (kochia; [7]) of the same compound?
A: The value was 0.

Q: And the “Plant response rating, Kochia” value (kochia; [10])?
A: Its value is 0.

Q: What about the “Plant response rating, Kochia” value (kochia; [8]) of the same compound?
A: Its value is 50.

Q: And the “Plant response rating, Corn” value (corn; [3])?
A: Its value is 0.

Q: What about the “Plant response rating, Corn” value (corn; [4]) of the same compound?
A: Its value is 0.

Q: What about the “Plant response rating, Sedge, Umbrella” value (sedge, umbrella; 500 g ai/ha) of the same compound?
A: The value was 30.

Q: And the “Plant response rating, Foxtail, Giant” value (giant foxtail; [6])?
A: The value was 0.

Q: What about the “Plant response rating, Foxtail, Giant” value (giant foxtail; [7]) of the same compound?
A: The value was 30.

Q: What about the “Plant response rating, Foxtail, Giant” value (giant foxtail; [10]) of the same compound?
A: Its value is 20.

Q: And the “Plant response rating, Foxtail, Giant” value (giant foxtail; [8])?
A: The value was 70.

Q: And the “Plant response rating, Barnyardgrass” value (barnyardgrass [2]; [6])?
A: Its value is 50.

Q: And the “Plant response rating, Barnyardgrass” value (barnyardgrass [2]; [7])?
A: Its value is 90.

Q: And the “Plant response rating, Barnyardgrass” value (barnyardgrass [2]; [10])?
A: Its value is 60.

Q: And the “Plant response rating, Barnyardgrass” value (barnyardgrass [2]; [8])?
A: Its value is 90.

Q: And the “Plant response rating, Wheat” value (wheat; 125 g ai/ha, visual rating on 0 to 100 scale (0 no effect, 100 complete control), approx. 10 days)?
A: Its value is 0.

Q: And the “Plant response rating, Wheat” value (wheat; [4])?
A: Its value is 0.

Q: What about the “Plant response rating, Ryegrass, Italian” value (ryegrass, Italian; [9]) of the same compound?
A: Its value is 0.

Q: What about the “Plant response rating, Ryegrass, Italian” value (ryegrass, Italian; [7]) of the same compound?
A: The value was 0.

Q: And the “Plant response rating, Ryegrass, Italian” value (ryegrass, Italian; [10])?
A: Its value is 0.

Q: What about the “Plant response rating, Ryegrass, Italian” value (ryegrass, Italian; [8]) of the same compound?
A: The value was 0.
